Several values for one entry are separate records, joined by “and”; a condition that tells them apart may be missing. Equal entries are not always repeated.
Settings: Liquid, Transpiration method

O=Cc1ccco1 [2-furaldehyde]
Settings	vapor or sublimation pressure [kPa]
276.7 K	0.0525
281.5 K	0.0746
285.4 K	0.1011
288.4 K	0.1293
290.6 K	0.1516
293.2 K	0.182
295.5 K	0.2088
298.2 K	0.2589
300.5 K	0.3002
303.1 K	0.3652
308.2 K	0.4911
312.2 K	0.6213
315.1 K	0.7411
317.9 K	0.9108
320.1 K	1.04
323.4 K	1.256

O=CCc1ccccc1 [α-tolualdehyde]
Settings	vapor or sublimation pressure [kPa]
293.2 K	0.01683
298.1 K	0.02456
303.1 K	0.03724
308.2 K	0.05436
313.7 K	0.0801
317.9 K	0.111
323 K	0.15
328.1 K	0.2162
332.1 K	0.2883
338 K	0.4029
343 K	0.5498

O=Cc1ccccc1 [benzaldehyde]
Settings	vapor or sublimation pressure [kPa]
278.4 K	0.04083
282.3 K	0.05524
286.3 K	0.07697
290.3 K	0.09697
294.3 K	0.1372
298.4 K	0.1775
303.2 K	0.246
308.2 K	0.3195
313.2 K	0.4306

OCCc1ccccc1 [2-phenylethanol]
Settings	vapor or sublimation pressure
287.8 K	0.00251 kPa
289.7 K	0.00285 kPa
292.7 K	0.00399 kPa
295.1 K	0.00482 kPa
297.5 K	0.00626 kPa
302.5 K	0.00976 kPa
308.2 K	0.0153 kPa
312.5 K	0.02276 kPa
316.6 K	0.03091 kPa
317.6 K	0.03285 kPa
322.7 K	0.05022 kPa and 0.05028 kPa
322.8 K	0.05055 kPa
327.8 K	0.06913 kPa
332.8 K	0.09839 kPa
337.9 K	0.1395 kPa
342.9 K	0.2097 kPa
348.1 K	0.2794 kPa
353.2 K	0.3777 kPa
358.3 K	0.5243 kPa
363.3 K	0.6922 kPa

Source: the NIST ThermoML archive (doi:10.1021/je060406c)
